Consider 20 molecules from ChEMBL document CHEMBL1140483, “High dopamine transporter selectivity can be displayed by remarkably simple non-nitrogen containing inhibitors” (Bioorg Med Chem Lett, 2007).

Bounds are passed on as bounds.

Assay [1] has as its target Sodium-dependent noradrenaline transporter (Homo sapiens, UniProt P23975). Description: Displacement of [125I]RTI55 from human NET transfected in COS1 cells. The assay is classed as cell-based, COS-1. Background: Displacement assays read how much labelled ligand stays bound in the presence of the test substance.
For assay [2], the target named is Sodium-dependent serotonin transporter (Homo sapiens, UniProt P31645). The assay is described as follows: Displacement of [125I]RTI55 from human SERT transfected in COS1 cells. The assay is classed as cell-based, COS-1.
The species entered for assay [3] is Homo sapiens. Description: Selectivity for human DAT over human NET.
In assay [4] the target is Sodium-dependent dopamine transporter (Homo sapiens, UniProt Q01959). Description: Displacement of [125I]RTI55 from human DAT transfected in COS1 cells. Format: cell-based, COS-1.
The species entered for assay [5] is Homo sapiens. Description: Selectivity for human DAT over human SERT.

Sodium-dependent serotonin transporter, sequence (P31645 whole entry): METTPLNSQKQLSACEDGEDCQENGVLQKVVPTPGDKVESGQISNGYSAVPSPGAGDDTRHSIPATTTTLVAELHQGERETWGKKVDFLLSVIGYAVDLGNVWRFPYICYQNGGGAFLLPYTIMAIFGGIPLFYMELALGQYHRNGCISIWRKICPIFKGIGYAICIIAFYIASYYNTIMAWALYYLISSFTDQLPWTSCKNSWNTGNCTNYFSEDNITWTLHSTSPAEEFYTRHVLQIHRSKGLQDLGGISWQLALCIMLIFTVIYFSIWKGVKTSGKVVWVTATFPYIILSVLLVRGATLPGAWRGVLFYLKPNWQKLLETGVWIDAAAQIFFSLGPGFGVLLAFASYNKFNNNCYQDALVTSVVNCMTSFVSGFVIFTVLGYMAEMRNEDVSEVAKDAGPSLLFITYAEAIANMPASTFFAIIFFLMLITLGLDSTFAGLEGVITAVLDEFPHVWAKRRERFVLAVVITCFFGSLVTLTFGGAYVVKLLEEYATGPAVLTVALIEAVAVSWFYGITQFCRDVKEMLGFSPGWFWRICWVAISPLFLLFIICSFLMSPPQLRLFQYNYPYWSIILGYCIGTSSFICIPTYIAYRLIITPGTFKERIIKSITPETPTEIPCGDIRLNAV
Sodium-dependent dopamine transporter, sequence (Q01959 whole entry): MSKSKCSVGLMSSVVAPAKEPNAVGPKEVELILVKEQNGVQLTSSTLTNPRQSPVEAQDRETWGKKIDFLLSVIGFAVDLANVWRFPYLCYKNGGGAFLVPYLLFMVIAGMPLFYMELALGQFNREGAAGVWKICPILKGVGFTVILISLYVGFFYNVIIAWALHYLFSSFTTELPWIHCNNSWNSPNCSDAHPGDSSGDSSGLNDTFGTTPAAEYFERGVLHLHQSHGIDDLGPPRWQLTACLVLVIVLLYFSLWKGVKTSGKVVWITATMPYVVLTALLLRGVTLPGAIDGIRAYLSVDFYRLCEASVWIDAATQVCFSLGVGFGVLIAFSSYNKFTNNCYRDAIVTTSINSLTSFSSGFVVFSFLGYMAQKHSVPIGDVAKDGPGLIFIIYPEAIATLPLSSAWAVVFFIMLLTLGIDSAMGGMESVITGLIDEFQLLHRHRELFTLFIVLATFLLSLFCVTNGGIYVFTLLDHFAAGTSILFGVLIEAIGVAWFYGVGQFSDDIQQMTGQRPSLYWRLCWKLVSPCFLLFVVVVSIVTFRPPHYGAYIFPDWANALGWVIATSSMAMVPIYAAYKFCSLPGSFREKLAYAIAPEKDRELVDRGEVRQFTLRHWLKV
Sodium-dependent noradrenaline transporter, sequence (P23975 whole entry): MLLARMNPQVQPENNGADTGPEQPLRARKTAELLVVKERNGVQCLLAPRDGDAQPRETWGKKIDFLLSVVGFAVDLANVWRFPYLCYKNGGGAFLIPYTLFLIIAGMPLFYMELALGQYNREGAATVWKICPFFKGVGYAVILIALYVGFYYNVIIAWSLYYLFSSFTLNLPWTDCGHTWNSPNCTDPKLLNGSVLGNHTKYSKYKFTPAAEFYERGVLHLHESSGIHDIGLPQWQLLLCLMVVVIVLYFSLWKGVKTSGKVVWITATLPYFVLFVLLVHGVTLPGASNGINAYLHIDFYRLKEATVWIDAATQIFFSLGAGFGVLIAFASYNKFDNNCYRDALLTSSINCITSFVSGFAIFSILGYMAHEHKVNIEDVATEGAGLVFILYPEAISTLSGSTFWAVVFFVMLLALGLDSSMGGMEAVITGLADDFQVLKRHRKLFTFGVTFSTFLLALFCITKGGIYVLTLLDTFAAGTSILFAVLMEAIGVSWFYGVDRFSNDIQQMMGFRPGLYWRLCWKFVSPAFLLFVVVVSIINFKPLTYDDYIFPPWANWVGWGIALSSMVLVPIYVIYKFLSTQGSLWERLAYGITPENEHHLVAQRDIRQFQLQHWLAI

The term Ki denotes a measure of affinity in units of concentration, obtained from inhibition or displacement. Low readings indicate higher affinity, high ones lower affinity. With `O=C(OCC(F)(F)F)C1=C(c2ccc(Cl)c(Cl)c2)CCC1`, the Ki is 170 µM in assay [1], greater than 1000 µM in assay [2] and 3.4 µM in assay [4]. Further, the Ratio Ki in the assay filed under Homo sapiens [3] is 50.

For `COC(=O)C1=C(c2ccc(Cl)c(Cl)c2)CCC1`, the Ratio Ki in the assay filed under Homo sapiens [5] was found to be 410; in the assay listed under Homo sapiens [3], 6.

Take `CON(C)C(=O)C1=C(c2ccc(Cl)c(Cl)c2)CCC1`: the Ki in assay [1] came out at 250 µM; in assay [2], 540 µM; in assay [4] it was 6.4 µM. The Ratio Ki in the assay filed under Homo sapiens [5] was determined as 84; in the assay filed under Homo sapiens [3] it was 39.

With `O=C(NC1CCC1)C1=C(c2ccc(Cl)c(Cl)c2)CCC1`, the inhibition constant (Ki) in assay [1] was 50 µM; in assay [2], greater than 1000 µM; in assay [4], 9 µM. Further, the Ratio Ki in the assay listed under Homo sapiens [5] is greater than 110; in the assay filed under Homo sapiens [3] it was 5.6.

Turning to `O=C(OC1CCCCC1)C1=C(c2ccc(Cl)c(Cl)c2)CCC1`, the Ki in assay [1] is 130 µM; in assay [2] it was greater than 1000 µM; in assay [4] it was 12 µM. The values for the Ratio Ki in the assay filed under Homo sapiens [5] and in the assay listed under Homo sapiens [3] were greater than 83 and 11, respectively.

On to `O=C(OCc1ccco1)C1=C(c2ccc(Cl)c(Cl)c2)CCC1`, for which the values for the Ki in assay [1], in assay [2] and in assay [4] were 61 µM, 24 µM and 1.5 µM, respectively. Moreover, the Ratio Ki was found to be 16 in the assay filed under Homo sapiens [5] and 41 in the assay filed under Homo sapiens [3].

Turning to `O=C(NCc1ccco1)C1=C(c2ccc(Cl)c(Cl)c2)CCC1`, the inhibitory constant (Ki) was found to be 12 µM in assay [1], 24 µM in assay [2] and 0.03 µM in assay [4]. Moreover, the values for the Ratio Ki in the assay listed under Homo sapiens [5] and in the assay listed under Homo sapiens [3] were 800 and 400, respectively.

For `O=C(OCCF)C1=C(c2ccc(Cl)c(Cl)c2)CCC1`, the Ki in assay [1] is 5.8 µM; in assay [2], 390 µM; in assay [4], 0.5 µM. Moreover, the Ratio Ki in the assay listed under Homo sapiens [5] is 780; in the assay listed under Homo sapiens [3], 12.

As for `O=C(Oc1ccccc1)C1=C(c2ccc(Cl)c(Cl)c2)CCC1`, the Ki is 85 µM in assay [1], greater than 500 µM in assay [2] and 0.17 µM in assay [4]. The Ratio Ki was greater than 2900 in the assay listed under Homo sapiens [5] and 500 in the assay filed under Homo sapiens [3].

Take `O=C(OCCO)C1=C(c2ccc(Cl)c(Cl)c2)CCC1`: the Ki was 9 µM in assay [1], 50 µM in assay [2] and 0.3 µM in assay [4]. The figures for the Ratio Ki in the assay filed under Homo sapiens [5] and in the assay listed under Homo sapiens [3] were 170 and 30, respectively.

Take `O=C(C1=C(c2ccc(Cl)c(Cl)c2)CCC1)N1CCOCC1`: the Ki in assay [1] is 300 µM; in assay [2], greater than 500 µM; in assay [4] it was 11 µM. Moreover, the values for the Ratio Ki in the assay listed under Homo sapiens [5] and in the assay listed under Homo sapiens [3] were greater than 45 and 27, respectively.

`CONC(=O)C1=C(c2ccc(Cl)c(Cl)c2)CCC1`: the Ki in assay [1] was 9.2 µM; in assay [2] it was greater than 500 µM; in assay [4], 0.83 µM. In addition, the Ratio Ki in the assay filed under Homo sapiens [5] was greater than 600; in the assay filed under Homo sapiens [3], 11.

On to `O=C(NCc1cccs1)C1=C(c2ccc(Cl)c(Cl)c2)CCC1`, for which the Ki in assay [1] came to 18 µM; in assay [2] it was 110 µM; in assay [4], 0.14 µM. Besides, the Ratio Ki in the assay listed under Homo sapiens [5] stood at 790; in the assay filed under Homo sapiens [3] it was 130.

With `O=C(NCCF)C1=C(c2ccc(Cl)c(Cl)c2)CCC1`, the Ki in assay [1] was 8 µM; in assay [2] it was greater than 500 µM; in assay [4], 0.07 µM. Also, the Ratio Ki in the assay listed under Homo sapiens [5] was greater than 7100; in the assay listed under Homo sapiens [3], 110.

`Cc1cccc(OC(=O)C2=C(c3ccc(Cl)c(Cl)c3)CCC2)c1`: the figures for the Ki in assay [1], in assay [2] and in assay [4] were greater than 100 µM, greater than 1000 µM and 0.06 µM, respectively. The Ratio Ki in the assay filed under Homo sapiens [5] was greater than 17000; in the assay filed under Homo sapiens [3] it was greater than 1700.

Consider `Cc1ccccc1OC(=O)C1=C(c2ccc(Cl)c(Cl)c2)CCC1`, for which the Ki in assay [1] was 33 µM; in assay [2] it was greater than 500 µM; in assay [4], 0.22 µM. Also, the Ratio Ki is greater than 2300 in the assay listed under Homo sapiens [5] and 150 in the assay listed under Homo sapiens [3].

With `O=C(OCc1cccs1)C1=C(c2ccc(Cl)c(Cl)c2)CCC1`, the Ki in assay [1] is 42 µM; in assay [2], 910 µM; in assay [4] it was 0.4 µM. Further, the Ratio Ki in the assay listed under Homo sapiens [5] is 2300; in the assay listed under Homo sapiens [3], 110.

On to `CCN(CC)C(=O)C1=C(c2ccc(Cl)c(Cl)c2)CCC1`, for which the Ki is 210 µM in assay [1], 300 µM in assay [2] and 94 µM in assay [4]. The Ratio Ki is 3.2 in the assay listed under Homo sapiens [5] and 2.2 in the assay listed under Homo sapiens [3].

Consider `O=C(C1=C(c2ccc(Cl)c(Cl)c2)CCC1)N1CCCC1`, for which the inhibition constant Ki in assay [1] is 410 µM; in assay [2] it was 520 µM; in assay [4] it was 58 µM. Besides, the Ratio Ki in the assay listed under Homo sapiens [5] was 9; in the assay filed under Homo sapiens [3] it was 7.

Regarding `CC(C)OC(=O)C1=C(c2ccc(Cl)c(Cl)c2)CCC1`, the Ki turned out to be 26 µM in assay [1], 500 µM in assay [2] and 2.6 µM in assay [4]. The values for the Ratio Ki in the assay filed under Homo sapiens [5] and in the assay filed under Homo sapiens [3] were 190 and 10, respectively.
